From patent publication US20250381110A1, “SKIN CARE COMPOSITION AND METHOD OF USING THE SAME” (THE PROCTER & GAMBLE COMPANY, priority 2024, published 2025)
Where a name gives a salt, the structure may show the parent alone. Where a SMILES comes first, the peptide text is derived from it. Bridges are numbered along the chain shown (N, C = ends). [ ]: non-standard residue; d: D form. The star is where a group is joined. Ileψ(thiazoline)Cys = CC[C@H](C)[C@H](N)C1=N[C@H](C(=O)*)CS1; dOrn = NCCC[C@@H](N)C(=O)O

Tested on: p62-dependent mitophagy
Experiment: Luciferase-p62 assay (Fluc-p62 clearance) in mouse embryonic fibroblasts
Assay type: cell-based
Conditions: for Mean Luminescence: Luciferase-p62 assay, mouse embryonic fibroblasts (MEFs), compounds at 10 μM; for % Activity over baseline: percentage of Luciferase-p62 clearance relative to baseline (mean luminescence in the absence of doxycycline induction); for % Activity over baseline / % Activity relative to Rapamycin: MEFs, 10 μM; for % Activity relative to Rapamycin: percentage of activity relative to rapamycin tested in the same experiment at the same concentration
Method: To identify p62-dependent materials which increase mitophagy, a Luciferase-p62 Assay was established. This method provides an approach to measure the ability of a material to modulate p62-dependent mitophagy by using an inducible firefly luciferase-p62 (Fluc-p62) reporter cell system. In this assay, p62 levels are driven by doxycycline treatment. After levels increased, expression of Fluc-p62 is turned off by removal of doxycycline, materials are then added and assessed for how they affect clearance of Fluc-p62 protein, which is proportionate to cellular mitophagy rates (Kelly et al.). The negative control is doxycycline induced Luc-p62 in the absence of compound or bioactive material treatment and in the presence of vehicle (DMSO).
Test materials including bioactive materials were screened in mouse embryonic fibroblasts (MEFs, Harada et al.) expressing the TET-inducible p62-fluc construct as previously described (Brown et al.). […] Gibson assembly was used to insert firefly luciferase (Fluc) and p62 into the pCW57.1 backbone. Fluc, p62, and pCW57.1 were polymerase chain reaction (PCR) amplified using pfu polymerase (Life technologies) and Gibson assembly primers with 20 base pair (bp) overhangs. PCR products were separated by agarose gel electrophoreses, and fragments excised and purified before use in DNA assembly reaction with NEBuilder HiFi DNA Assembly kit (New England Biolabs). After the assembly, the reaction mix was transformed into NEB3040 Stable Competent Escherichia coli (New England Biolabs). After 24 hours growth at 31 degrees Celsius the plasmid was extracted using QIAprep Spin Miniprep kit (Qiagen). The plasmid was sequenced to confirm correct insertion of Fluc-p62. To generate MEFs stably expressing doxycycline inducible Fluc-p62, HEK293FT cells were transfected with Fluc-p62-pCW57.1 and the ViraPower Packaging Mix (Invitrogen) to produce lentivirus. MEFs were transduced with the obtained lentiviral stock following followed by selection with 1 microgram per milliliter puromycin.Fluc-p62expressing MEFs were maintained in DMEM supplemented with 10 percent fetal bovine serum (FBS), 100 units per milliliter penicillin/streptomycin, and 2 millimolar L-glutamine in a humidified atmosphere containing 5 percent carbon dioxide at 37 degrees Celsius. Cells were plated into white 96 well plates (2,000 cells per well with 100 microliters media) and allowed to settle for 24 hours. […] Subsequently, cells were treated with test materials for 48 hours in normal growth medium and analysed using ONE-Glo™+Tox Luciferase Reporter and Cell Viability Assay (Promega) by following the manufacturer's protocol.
Test compositions and control compositions were prepared as described above in the Luciferase-p62 assay (Method 3) and tested accordingly. The compounds used in this example, as examples of bioactive materials, were from the APExBIO DiscoveryProbe™ Natural Product Library Plus (Houston, TX) and evaluated at equivalent concentrations (10 μM).
Data are additionally calculated as percentage of activity relative to rapamycin, a benchmark control compound tested in the same experiment.

| SMILES | Mean Luminescence | % Activity over baseline [%] | % Activity relative to Rapamycin [%] |
| --- | --- | --- | --- |
| CC[C@H](C)[C@H](N)C1=N[C@H](C(=O)N[C@@H](CC(C)C)C(=O)N[C@H](CCC(=O)O)C(=O)N[C@H](C(=O)N[C@H]2CCCCNC(=O)[C@H](CC(N)=O)NC(=O)[C@@H](CC(=O)O)NC(=O)[C@H](Cc3cnc[nH]3)NC(=O)[C@@H](Cc3ccccc3)NC(=O)[C@H]([C@@H](C)CC)NC(=O)[C@@H](CCCN)NC2=O)[C@@H](C)CC)CS1 [Bacitracin] ({Ileψ(thiazoline)Cys}-L[dE]IK[dOrn]I[dF]H[dD]N; lactam 4-C) | 860.05 | 46.85 | 84.41 |
| COc1nc2ccc(Br)cc2cc1[C@@H](c1ccccc1)[C@@](O)(CCN(C)C)c1cccc2ccccc12 [Bedaquiline] | 802.99 |  |  |
| CC1(C)S[C@@H]2[C@H](NC(=O)Cc3ccccc3)C(=O)N2[C@H]1C(=O)O [Benzylpenicillin potassium] | 937.79 | 42.04 | 75.75 |
| COc1ccc2cc3[n+](cc2c1O)CCc1cc2c(cc1-3)OCO2 [Berberrubine] | 766.18 | 52.65 | 94.86 |
| N[C@@H]1CCCCN(c2c(F)cc3c(=O)c(C(=O)O)cn(C4CC4)c3c2Cl)C1 [Besifloxacin HCl] | 777.82 | 51.93 | 93.56 |
| O=C(O)CCNC(=O)c1ccccc1 [Betamipron] | 923.38 |  |  |
| O=C(/C=C/c1ccc(O)cc1)CC(=O)/C=C/c1ccc(O)cc1 [Bisdemethoxycurcumin] | 355.33 | 78.04 | 140.61 |
| C[C@H]1CCC/C=C/[C@@H]2C[C@H](O)C[C@H]2[C@H](O)/C=C/C(=O)O1 [Brefeldin A] | 356.17 | 77.99 | 140.52 |
| CC(C)C[C@H]1C(=O)N2CCC[C@H]2[C@]2(O)O[C@](NC(=O)[C@@H]3C=C4c5cccc6[nH]c(Br)c(c56)C[C@H]4N(C)C3)(C(C)C)C(=O)N12 [Bromocriptine mesylate] | 685.00 | 57.67 | 103.90 |
| CN(Cc1ccc(C(C)(C)C)cc1)Cc1cccc2ccccc12 [Butenafine HCl] | 582.45 | 64.00 | 115.32 |
| CO[C@H]1C(=O)[C@]2(C)[C@@H](OC)C[C@H]3OC[C@@]3(OC(C)=O)[C@H]2[C@H](OC(=O)c2ccccc2)[C@]2(O)C[C@H](OC(=O)[C@H](O)[C@@H](NC(=O)OC(C)(C)C)c3ccccc3)C(C)=C1C2(C)C [Cabazitaxel] | 929.36 | 42.56 | 76.69 |
| CC(C)(CO)C(O)C(=O)NCCC(=O)[O-].CC(C)(CO)C(O)C(=O)NCCC(=O)[O-].[Ca+2] [Calcium D-Panthotenate] | 981.67 | 39.33 | 70.87 |
| CCCCCOC(=O)Nc1nc(=O)n([C@@H]2O[C@H](C)[C@@H](O)[C@H]2O)cc1F [Capecitabine] | 918.89 | 43.21 | 77.86 |
| COc1cc(CNC(=O)CCCC/C=C/C(C)C)ccc1O [Capsaicin] | 832.02 | 48.58 | 87.53 |
| CC1(C)[C@@H](OC(=O)CCC(=O)O)CC[C@]2(C)[C@H]3C(=O)C=C4[C@@H]5C[C@@](C)(C(=O)O)CC[C@]5(C)CC[C@@]4(C)[C@]3(C)CC[C@@H]12 [Carbenoxolone disodium] | 856.44 | 47.07 | 84.81 |
| CC(C)c1cc2c(c(O)c1O)[C@@]1(C(=O)O)CCCC(C)(C)[C@@H]1CC2 [Carnosic acid] | 661.96 | 59.09 | 106.47 |
| Cc1ccc(C(C)C)cc1O [Carvacrol] | 937.62 | 42.05 | 75.77 |

| SMILES | Mean Luminescence | % Activity over baseline [%] | % Activity relative to Rapamycin [%] |
| --- | --- | --- | --- |
| C[C@@H]1CC[C@H]2C(C)(C)[C@H]3C[C@@]12CC[C@@]3(C)O [Cedrol] | 850.22 | 47.46 | 85.50 |
| CO/N=C(\C(=O)N[C@@H]1C(=O)N2C(C(=O)O)=C(Cn3ccc(=N)n3CCO)CS[C@H]12)c1csc(N)n1.O=S(=O)(O)O [Cefoselis Sulfate] | 937.12 | 42.09 | 75.83 |
| CN(C)CCn1nnnc1SCC1=C(C(=O)O)N2C(=O)[C@@H](NC(=O)Cc3csc(N)n3)[C@H]2SC1 [Cefotiam hydrochloride] | 993.62 | 38.59 | 69.54 |
| CO/N=C(\C(=O)N[C@@H]1C(=O)N2C(C(=O)O)=C(CSC(=O)c3ccco3)CS[C@H]12)c1csc(N)n1 [Ceftiofur HCl] | 781.02 | 51.73 | 93.21 |
| CO/N=C(\C(=O)N[C@@H]1C(=O)N2C(C(=O)OC(C)OC(C)=O)=C(COC(N)=O)CS[C@H]12)c1ccco1 (some centres unmarked) [Cefuroxime axetil] | 958.52 | 40.76 | 73.44 |
| CC(=O)OCC1=C(C(=O)O)N2C(=O)[C@@H](NC(=O)Cc3cccs3)[C@H]2SC1 [Cephalothin] | 727.65 | 55.03 | 99.15 |
| C[C@H](CCC(=O)O)[C@H]1CC[C@H]2[C@@H]3[C@H](O)C[C@@H]4C[C@H](O)CC[C@]4(C)[C@H]3CC[C@]12C [Chenodeoxycholic Acid] | 999.71 | 38.22 | 68.86 |
| Oc1c(Cl)cc(Cl)c2cccnc12 [Chloroxine] | 272.45 | 83.16 | 149.84 |
| CC[C@H]1OC(=O)[C@H](C)[C@@H](O[C@H]2C[C@@](C)(OC)[C@@H](O)[C@H](C)O2)[C@H](C)[C@@H](O[C@@H]2O[C@H](C)C[C@H](N(C)C)[C@H]2O)[C@](C)(OC)C[C@@H](C)C(=O)[C@H](C)[C@@H](O)[C@]1(C)O [Clarithromycin] | 941.49 | 41.82 | 75.34 |
| CC(C)(C)NCC(O)c1cc(Cl)c(N)c(Cl)c1 (centres unmarked) [Clenbuterol (hydrochloride)] | 994.53 | 38.54 | 69.44 |
| CCC[C@@H]1C[C@@H](C(=O)N[C@@H]([C@H]2O[C@H](SC)[C@H](OP(=O)(O)O)[C@@H](O)[C@H]2O)[C@H](C)Cl)N(C)C1 [Clindamycin Phosphate] | 526.49 | 67.46 | 121.55 |
| Clc1ccccc1C(c1ccccc1)(c1ccccc1)n1ccnc1 [Clotrimazole] | 623.22 | 61.48 | 110.78 |
| O=c1ccn([C@H]2C[C@H](O)[C@@H](CO)O2)c(=O)[nH]1 [Compound 2-Deoxyuridine] | 867.92 | 46.36 | 83.53 |
| NC(=O)Cc1ccccc1 [Compound 2-Phenylacetamide, 2-Phenylacetamide] | 861.95 | 46.73 | 84.20 |
| Nc1ccc(O)cc1 [Compound 4-Aminophenol, 4-Aminophenol] | 482.45 | 70.18 | 126.45 |
| N[C@@H](Cc1c[nH]c2ccc(O)cc12)C(=O)O [Compound 5-HTP] | 902.36 | 44.23 | 79.70 |
